Source: ChEMBL document CHEMBL1781873, “Synthesis and antibacterial property of pyrrolopyrano quinolinones and pyrroloquinolines” (2011)
In brackets after ≈: the same amount, converted by molar mass. Activity calls are given as the source filed them. No cut-off for these calls is given here.

What was measured:
[1] = tested on: Salmonella typhi; experiment: Antibacterial activity against Salmonella typhi at 5 ug after 24 hrs by disc diffusion assay; assay type: functional, Salmonella enterica subsp. enterica serovar Typhi; conditions: Salmonella enterica, read-out: IZ
[2] = tested on: Escherichia coli; experiment: Inhibition of DNA gyrase mRNA expression in Escherichia coli measured up to 24 hrs by RT-PCR; assay type: functional, organism-based
[3] = tested on: Staphylococcus aureus; experiment: Antibacterial activity against Staphylococcus aureus at 5 ug after 24 hrs by disc diffusion assay; assay type: functional; conditions: read-out: IZ
[4] = tested on: Escherichia coli; experiment: Inhibition of Escherichia coli DNA gyrase assessed as inhibition of DNA supercoiling activity using pBR322 DNA as substrate at […] after 3 hrs by agarose gel electrophoresis
[5] = tested on: Staphylococcus aureus; experiment: Antibacterial activity against Staphylococcus aureus at 20 ug after 24 hrs by disc diffusion assay; assay type: functional; conditions: read-out: IZ
[6] = tested on: Escherichia coli; experiment: Antibacterial activity against Escherichia coli at 20 ug after 24 hrs by disc diffusion assay; assay type: functional; conditions: read-out: IZ
[7] = tested on: Bacillus subtilis; experiment: Antibacterial activity against Bacillus subtilis at 20 ug after 24 hrs by disc diffusion assay; assay type: functional; conditions: read-out: IZ
[8] = tested on: Pseudomonas aeruginosa; experiment: Antibacterial activity against Pseudomonas aeruginosa at 20 ug after 24 hrs by disc diffusion assay; assay type: functional; conditions: read-out: IZ
[9] = tested on: Klebsiella pneumoniae; experiment: Antibacterial activity against Klebsiella pneumoniae at 25 ug after 24 hrs by disc diffusion assay; assay type: functional; conditions: read-out: IZ
[10] = tested on: Klebsiella pneumoniae; experiment: Antibacterial activity against Klebsiella pneumoniae at 20 ug after 24 hrs by disc diffusion assay; assay type: functional; conditions: read-out: IZ
[11] = tested on: Salmonella typhi; experiment: Antibacterial activity against Salmonella typhi at 15 ug after 24 hrs by disc diffusion assay; assay type: functional, Salmonella enterica subsp. enterica serovar Typhi; conditions: Salmonella enterica, read-out: IZ
[12] = tested on: Salmonella typhi; experiment: Antibacterial activity against Salmonella typhi at 20 ug after 24 hrs by disc diffusion assay; assay type: functional, Salmonella enterica subsp. enterica serovar Typhi; conditions: Salmonella enterica, read-out: IZ
[13] = tested on: Staphylococcus aureus; experiment: Antibacterial activity against Staphylococcus aureus at 10 ug after 24 hrs by disc diffusion assay; assay type: functional; conditions: read-out: IZ
[14] = tested on: Salmonella typhi; experiment: Antibacterial activity against Salmonella typhi after 18 to 20 hrs by broth micro dilution assay; assay type: functional, Salmonella enterica subsp. enterica serovar Typhi; conditions: Salmonella enterica
[15] = tested on: Bacillus subtilis; experiment: Antibacterial activity against Bacillus subtilis at 25 ug after 24 hrs by disc diffusion assay; assay type: functional; conditions: read-out: IZ
[16] = tested on: Escherichia coli; experiment: Antibacterial activity against Escherichia coli after 18 to 20 hrs by broth micro dilution assay; assay type: functional
[17] = tested on: Pseudomonas aeruginosa; experiment: Antibacterial activity against Pseudomonas aeruginosa at 15 ug after 24 hrs by disc diffusion assay; assay type: functional; conditions: read-out: IZ
[18] = tested on: Escherichia coli; experiment: Antibacterial activity against Escherichia coli at 10 ug after 24 hrs by disc diffusion assay; assay type: functional; conditions: read-out: IZ
[19] = tested on: Escherichia coli; experiment: Antibacterial activity against Escherichia coli at 5 ug after 24 hrs by disc diffusion assay; assay type: functional; conditions: read-out: IZ
[20] = tested on: Salmonella typhi; experiment: Antibacterial activity against Salmonella typhi at 25 ug after 24 hrs by disc diffusion assay; assay type: functional, Salmonella enterica subsp. enterica serovar Typhi; conditions: Salmonella enterica, read-out: IZ
[21] = tested on: Staphylococcus aureus; experiment: Antibacterial activity against Staphylococcus aureus at 15 ug after 24 hrs by disc diffusion assay; assay type: functional; conditions: read-out: IZ
[22] = tested on: Escherichia coli; experiment: Inhibition of Escherichia coli DNA gyrase -mediated DNA relaxation using pBR322 DNA as substrate at […] after 1 hrs by agarose gel electrophoresis
[23] = tested on: Pseudomonas aeruginosa; experiment: Antibacterial activity against Pseudomonas aeruginosa at 5 ug after 24 hrs by disc diffusion assay; assay type: functional; conditions: read-out: IZ
[24] = tested on: Staphylococcus aureus; experiment: Antibacterial activity against Staphylococcus aureus after 18 to 20 hrs by broth micro dilution assay; assay type: functional
[25] = tested on: Klebsiella pneumoniae; experiment: Antibacterial activity against Klebsiella pneumoniae at 15 ug after 24 hrs by disc diffusion assay; assay type: functional; conditions: read-out: IZ
[26] = tested on: Bacillus subtilis; experiment: Antibacterial activity against Bacillus subtilis at 10 ug after 24 hrs by disc diffusion assay; assay type: functional; conditions: read-out: IZ
[27] = tested on: Pseudomonas aeruginosa; experiment: Antibacterial activity against Pseudomonas aeruginosa at 25 ug after 24 hrs by disc diffusion assay; assay type: functional; conditions: read-out: IZ
[28] = tested on: Klebsiella pneumoniae; experiment: Antibacterial activity against Klebsiella pneumoniae at 5 ug after 24 hrs by disc diffusion assay; assay type: functional; conditions: read-out: IZ
[29] = tested on: Pseudomonas aeruginosa; experiment: Antibacterial activity against Pseudomonas aeruginosa after 18 to 20 hrs by broth micro dilution assay; assay type: functional
[30] = tested on: Escherichia coli; experiment: Antibacterial activity against Escherichia coli at 15 ug after 24 hrs by disc diffusion assay; assay type: functional; conditions: read-out: IZ
[31] = tested on: Staphylococcus aureus; experiment: Antibacterial activity against Staphylococcus aureus at 25 ug after 24 hrs by disc diffusion assay; assay type: functional; conditions: read-out: IZ
[32] = tested on: Bacillus subtilis; experiment: Antibacterial activity against Bacillus subtilis at 15 ug after 24 hrs by disc diffusion assay; assay type: functional; conditions: read-out: IZ
[33] = tested on: Klebsiella pneumoniae; experiment: Antibacterial activity against Klebsiella pneumoniae at 10 ug after 24 hrs by disc diffusion assay; assay type: functional; conditions: read-out: IZ
[34] = tested on: Bacillus subtilis; experiment: Antibacterial activity against Bacillus subtilis after 18 to 20 hrs by broth micro dilution assay; assay type: functional
[35] = tested on: Escherichia coli; experiment: Antibacterial activity against Escherichia coli at 25 ug after 24 hrs by disc diffusion assay; assay type: functional; conditions: read-out: IZ
[36] = tested on: Pseudomonas aeruginosa; experiment: Antibacterial activity against Pseudomonas aeruginosa at 10 ug after 24 hrs by disc diffusion assay; assay type: functional; conditions: read-out: IZ
[37] = tested on: Salmonella typhi; experiment: Antibacterial activity against Salmonella typhi at 10 ug after 24 hrs by disc diffusion assay; assay type: functional, Salmonella enterica subsp. enterica serovar Typhi; conditions: Salmonella enterica, read-out: IZ
[38] = tested on: Klebsiella pneumoniae; experiment: Antibacterial activity against Klebsiella pneumoniae after 18 to 20 hrs by broth micro dilution assay; assay type: functional

## CCC1[C@@H]2Nc3ccc(Cl)cc3C(c3ccccc3)[C@H]2CN1OS(=O)(=O)c1ccc(C)cc1 (some centres not stated)
[1]
  zone of inhibition at 5 µg/disc: 10 mm
[2]
  inhibition of gyrase mRNA expression (active/not active): Active
[3]
  zone of inhibition at 5 µg/disc: 9 mm
[4]
  DNA gyrase inhibition (active/inactive): Active
[5]
  zone of inhibition at 20 µg/disc: 14 mm
[6]
  zone of inhibition at 20 µg/disc: 20 mm
[7]
  zone of inhibition at 20 µg/disc: 10 mm
[8]
  zone of inhibition at 20 µg/disc: 22 mm
[9]
  zone of inhibition at 25 µg/disc: 36 mm
[10]
  zone of inhibition at 20 µg/disc: 34 mm
[11]
  zone of inhibition at 15 µg/disc: 18 mm
[12]
  zone of inhibition at 20 µg/disc: 20 mm
[13]
  zone of inhibition at 10 µg/disc: 12 mm
[14]
  MIC50: 128 µg/mL (≈ 265 µM)
  MIC90: 128 µg/mL (≈ 265 µM)
[15]
  zone of inhibition at 25 µg/disc: 12 mm
[16]
  MIC50: 128 µg/mL (≈ 265 µM)
  MIC90: 128 µg/mL (≈ 265 µM)
[17]
  zone of inhibition at 15 µg/disc: 17 mm
[18]
  zone of inhibition at 10 µg/disc: 16 mm
[19]
  zone of inhibition at 5 µg/disc: 10 mm
[20]
  zone of inhibition at 25 µg/disc: 22 mm
[21]
  zone of inhibition at 15 µg/disc: 13 mm
[22]
  inhibition: Active
[23]
  zone of inhibition at 5 µg/disc: 10 mm
[24]
  MIC50: 128 µg/mL (≈ 265 µM)
  MIC90: 128 µg/mL (≈ 265 µM)
[25]
  zone of inhibition at 15 µg/disc: 30 mm
[26]
  zone of inhibition at 10 µg/disc: 7 mm
[27]
  zone of inhibition at 25 µg/disc: 24 mm
[28]
  zone of inhibition at 5 µg/disc: 20 mm
[29]
  MIC50: 128 µg/mL (≈ 265 µM)
  MIC90: 128 µg/mL (≈ 265 µM)
[30]
  zone of inhibition at 15 µg/disc: 18 mm
[31]
  zone of inhibition at 25 µg/disc: 17 mm
[32]
  zone of inhibition at 15 µg/disc: 9 mm
[33]
  zone of inhibition at 10 µg/disc: 26 mm
[34]
  MIC50: 128 µg/mL (≈ 265 µM)
  MIC90: 128 µg/mL (≈ 265 µM)
[35]
  zone of inhibition at 25 µg/disc: 23 mm
[36]
  zone of inhibition at 10 µg/disc: 16 mm
[37]
  zone of inhibition at 10 µg/disc: 16 mm
[38]
  MIC50: 128 µg/mL (≈ 265 µM)
  MIC90: 128 µg/mL (≈ 265 µM)

## CCC1[C@H]2c3c(n(C)c4ccccc4c3=O)OC(c3ccccc3)[C@@H]2CN1OS(=O)(=O)c1ccc(C)cc1 (mixture of isomers)
[1]
  zone of inhibition at 5 µg/disc: 10 mm
[2]
  inhibition of gyrase mRNA expression (active/not active): Active
[3]
  zone of inhibition at 5 µg/disc: 20 mm
[4]
  DNA gyrase inhibition (active/inactive): Active
[5]
  zone of inhibition at 20 µg/disc: 30 mm
[6]
  zone of inhibition at 20 µg/disc: 22 mm
[7]
  zone of inhibition at 20 µg/disc: 7 mm
[8]
  zone of inhibition at 20 µg/disc: 20 mm
[9]
  zone of inhibition at 25 µg/disc: 36 mm
[10]
  zone of inhibition at 20 µg/disc: 34 mm
[11]
  zone of inhibition at 15 µg/disc: 18 mm
[12]
  zone of inhibition at 20 µg/disc: 22 mm
[13]
  zone of inhibition at 10 µg/disc: 24 mm
[14]
  MIC50: 128 µg/mL
  MIC90: 128 µg/mL
[15]
  zone of inhibition at 25 µg/disc: 9 mm
[16]
  MIC50: 128 µg/mL
  MIC90: 128 µg/mL
[17]
  zone of inhibition at 15 µg/disc: 16 mm
[18]
  zone of inhibition at 10 µg/disc: 14 mm
[19]
  zone of inhibition at 5 µg/disc: 12 mm
[20]
  zone of inhibition at 25 µg/disc: 24 mm
[21]
  zone of inhibition at 15 µg/disc: 26 mm
[22]
  inhibition: Active
[23]
  zone of inhibition at 5 µg/disc: 10 mm
[24]
  MIC50: 128 µg/mL
  MIC90: 128 µg/mL
[25]
  zone of inhibition at 15 µg/disc: 30 mm
[27]
  zone of inhibition at 25 µg/disc: 23 mm
[28]
  zone of inhibition at 5 µg/disc: 20 mm
[29]
  MIC50: 128 µg/mL
  MIC90: 128 µg/mL
[30]
  zone of inhibition at 15 µg/disc: 16 mm
[31]
  zone of inhibition at 25 µg/disc: 36 mm
[32]
  zone of inhibition at 15 µg/disc: 6 mm
[33]
  zone of inhibition at 10 µg/disc: 26 mm
[34]
  MIC50: 128 µg/mL
  MIC90: 128 µg/mL
[35]
  zone of inhibition at 25 µg/disc: 23 mm
[36]
  zone of inhibition at 10 µg/disc: 14 mm
[37]
  zone of inhibition at 10 µg/disc: 16 mm
[38]
  MIC50: 128 µg/mL
  MIC90: 128 µg/mL
